Experimental data published in paper PMC10178848, “Modulating fast skeletal muscle contraction protects skeletal muscle in animal models of Duchenne muscular dystrophy” (The Journal of Clinical Investigation, 2023).

Experiments:
[1] = molecular target: T1, AKT2 (Homo sapiens, UniProt P31751); experiment: KINOMEscan scanEDGE; assay type: binding; conditions: 20 uM
T1 construct: purchased Eurofins DiscoverX (KINOMEscan; SAFETYscan E/IC50 ELECT)

[2] = system: healthy mice, TA muscle; experiment: Cardiotoxin sterile muscle injury repair; assay type: in vivo, mouse; conditions: day 8 post injury
Experimental: For sterile muscle injury, mice were anesthetized with isoflurane and 50 μL cardiotoxin (12 × 10^–6 M, 217503, Millipore) injected in the TA muscle. Muscles 8 days after injury were snap frozen in nitrogen-chilled isopentane. 8 μm cryosections were cut and stained with H&E. For each analysis, more than 10 slides (per condition/group) containing 6 muscle sections/sample were used, and myofibers in the injured area were counted and measured with a Mirax digital scanner and HALO software ([68]). For adult mouse studies, muscles were fixed in 10% formalin and embedded in paraffin for sectioning. Laminin staining (RB-082, Thermo Fisher Scientific) was used to outline fibers, and picrosirius red was used for collagen accumulation. Image analysis was performed using ImarisX64 software (Bitplane AG), and fiber sizing was calculated using minimal Feret’s diameter ([69]). For after weaning juvenile mouse studies, cryosections from soleus muscles were mounted in ProLong antifade mountant with DAPI (Thermo Fisher Scientific). Fiber type, size, and central nucleation were quantified with analysis via SMASH ([70]) and ImageJ (NIH). Antibodies used were mouse anti-MHC2A (1:50, SC-71, Developmental Studies Hybridoma Bank) and mouse anti-eMHC (1:10, BF-45, Developmental Studies Hybridoma Bank).

[3] = molecular target: T2, DAT (Homo sapiens, UniProt Q01959); experiment: SAFETYscan Transporter; assay type: cell-based; parameters: dose or concentration left out as unconfirmed; conditions: read-out: Max Response (%) (Antagonist)
T2 construct: purchased Eurofins DiscoverX (KINOMEscan; SAFETYscan E/IC50 ELECT)
T2 sequence (Q01959 whole entry): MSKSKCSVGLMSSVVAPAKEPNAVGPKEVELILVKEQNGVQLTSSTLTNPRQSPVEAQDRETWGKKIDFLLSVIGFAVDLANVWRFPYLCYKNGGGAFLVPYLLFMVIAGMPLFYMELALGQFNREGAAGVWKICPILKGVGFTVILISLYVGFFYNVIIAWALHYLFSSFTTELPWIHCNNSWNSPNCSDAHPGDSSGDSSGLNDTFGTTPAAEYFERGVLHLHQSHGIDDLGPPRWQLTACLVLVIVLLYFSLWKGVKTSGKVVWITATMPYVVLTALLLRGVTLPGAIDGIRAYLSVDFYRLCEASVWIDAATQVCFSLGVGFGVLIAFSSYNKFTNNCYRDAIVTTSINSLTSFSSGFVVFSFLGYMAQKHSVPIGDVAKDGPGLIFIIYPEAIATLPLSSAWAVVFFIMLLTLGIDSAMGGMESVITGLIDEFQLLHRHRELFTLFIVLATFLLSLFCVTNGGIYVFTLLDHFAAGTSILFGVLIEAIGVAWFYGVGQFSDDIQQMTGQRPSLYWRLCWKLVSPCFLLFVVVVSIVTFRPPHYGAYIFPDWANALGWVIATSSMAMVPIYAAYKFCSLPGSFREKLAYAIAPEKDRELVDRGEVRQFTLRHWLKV
Experimental: (§1) The specificity of EDG-5506 for fast skeletal myosin over other, unrelated proteins was confirmed using two off-target binding and activity screens. […] A second off-target panel (SAFETYscan E/IC50 ELECT, Eurofins DiscoverX) tested in vitro enzyme activity against 78 proteins, including GPCR, ion channel, kinases, nuclear hormone receptors, and transporters. In all assays, the IC50 of EDG-5506 was more than 10 μM (Supplemental Data File 1).

[4] = molecular target: T3, NET (Homo sapiens, UniProt P23975); experiment: SAFETYscan Transporter; assay type: cell-based; parameters: dose or concentration left out as unconfirmed; conditions: read-out: Max Response (%) (Antagonist)
T3 construct: purchased Eurofins DiscoverX (KINOMEscan; SAFETYscan E/IC50 ELECT)
T3 sequence (P23975 whole entry): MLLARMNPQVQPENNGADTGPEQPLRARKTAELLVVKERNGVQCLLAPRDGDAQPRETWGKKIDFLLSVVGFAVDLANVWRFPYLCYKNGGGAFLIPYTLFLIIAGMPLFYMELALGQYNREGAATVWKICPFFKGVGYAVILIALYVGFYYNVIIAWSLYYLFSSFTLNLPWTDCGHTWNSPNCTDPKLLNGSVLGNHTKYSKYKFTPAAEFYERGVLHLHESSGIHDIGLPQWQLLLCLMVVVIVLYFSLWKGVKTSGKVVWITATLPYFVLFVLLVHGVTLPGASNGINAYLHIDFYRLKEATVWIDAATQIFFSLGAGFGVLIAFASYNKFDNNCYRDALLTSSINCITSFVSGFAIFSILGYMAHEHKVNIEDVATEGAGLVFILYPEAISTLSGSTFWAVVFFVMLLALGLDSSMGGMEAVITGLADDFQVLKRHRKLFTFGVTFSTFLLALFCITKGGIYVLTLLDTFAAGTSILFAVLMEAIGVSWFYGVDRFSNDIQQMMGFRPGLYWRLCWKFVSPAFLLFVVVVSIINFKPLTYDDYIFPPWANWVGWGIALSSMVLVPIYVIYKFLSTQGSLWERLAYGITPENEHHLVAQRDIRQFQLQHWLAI
Experimental: as §1

[5] = molecular target: T4, SERT (Homo sapiens, UniProt P31645); experiment: SAFETYscan Transporter; assay type: cell-based; parameters: dose or concentration left out as unconfirmed; conditions: read-out: Max Response (%) (Antagonist)
T4 construct: purchased Eurofins DiscoverX (KINOMEscan; SAFETYscan E/IC50 ELECT)
T4 sequence (P31645 whole entry): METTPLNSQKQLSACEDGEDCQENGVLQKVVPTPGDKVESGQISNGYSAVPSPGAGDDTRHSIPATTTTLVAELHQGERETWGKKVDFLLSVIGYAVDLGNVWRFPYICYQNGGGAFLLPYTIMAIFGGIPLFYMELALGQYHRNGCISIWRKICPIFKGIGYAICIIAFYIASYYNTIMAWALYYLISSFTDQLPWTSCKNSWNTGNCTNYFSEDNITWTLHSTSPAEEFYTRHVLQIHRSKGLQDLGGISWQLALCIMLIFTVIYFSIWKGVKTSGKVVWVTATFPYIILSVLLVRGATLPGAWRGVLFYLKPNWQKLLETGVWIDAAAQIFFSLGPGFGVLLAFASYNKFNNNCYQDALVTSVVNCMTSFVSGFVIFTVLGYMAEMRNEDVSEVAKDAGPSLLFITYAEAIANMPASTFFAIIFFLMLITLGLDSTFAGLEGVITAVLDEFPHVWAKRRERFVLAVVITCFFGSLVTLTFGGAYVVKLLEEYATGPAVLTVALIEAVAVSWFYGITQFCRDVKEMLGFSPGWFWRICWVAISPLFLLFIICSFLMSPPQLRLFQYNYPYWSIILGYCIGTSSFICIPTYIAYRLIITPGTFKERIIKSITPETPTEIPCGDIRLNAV
Experimental: as §1

[6] = system: DBA/2J mdx mouse; experiment: 12-week dosing in DBA/2J mdx mice (fibrosis); assay type: in vivo; conditions: 12 weeks, chow
Text: C57BL/6 (stock no. 000664), C57BL/10J (stock no. 000665, control for mdx experiments), C57BL/10ScSn-Dmd^mdx/J (mdx, stock no. 001801), and D2.B10 (DBA/2-congenic) Dmd^mdx (DBA/2J mdx, stock no. 013141) mice were from The Jackson Laboratory. Sprague-Dawley rats were purchased from Charles River Laboratories. For ex vivo experiments, mice were 10–16 weeks old. For in situ experiments, mice were 8–14 weeks of age. For in vivo chronic dosing studies, mdx and DBA/2J mdx were 4–5 weeks of age at study start. Dosing was via a 10 mL/kg suspension (1% methyl cellulose, 0.1% Tween 80 in water). For studies in 14-day-old preweaning mice, PO dosing was via syrup suspension (3 mg/kg/d). […]
For sterile muscle injury, mice were anesthetized with isoflurane and 50 μL cardiotoxin (12 × 10^–6 M, 217503, Millipore) injected in the TA muscle. […] 8 μm cryosections were cut and stained with H&E. For each analysis, more than 10 slides (per condition/group) containing 6 muscle sections/sample were used, and myofibers in the injured area were counted and measured with a Mirax digital scanner and HALO software ([68]). […] Image analysis was performed using ImarisX64 software (Bitplane AG), and fiber sizing was calculated using minimal Feret’s diameter ([69]). […] Fiber type, size, and central nucleation were quantified with analysis via SMASH ([70]) and ImageJ (NIH). […]

[7] = system: fast rabbit psoas muscle fibers; experiment: Skinned fiber force, rabbit psoas; conditions: Oryctolagus cuniculus, maximal force at pCa 4.5, read-out: IC50, force in single skinned fibers
Experimental: (§2) Measurement of isometric force in skinned fibers from rabbit psoas, rat soleus, and rat cardiac trabeculae were performed as described previously ([65]) with an 802D fiber system (Aurora Scientific). Muscle bundles were thawed from –80°C and placed in relaxing solution. Single fibers were transferred to the testing apparatus with steel pins connected to a force transducer and motor (model 403A and 322C, Aurora Scientific), and collodion glue was applied. Temperature was set to 15°C for skeletal fibers and 30°C for rat cardiac trabeculae. The wells of the 802D were filled with different ratios of relaxing and activating pCa solutions as detailed previously ([65]). All control solutions contained 1% final DMSO. Traces were compared between control and compound runs to evaluate isometric force and calcium sensitivity.

[8] = molecular target: T5, CDK7 (Homo sapiens, UniProt P50613); experiment: KINOMEscan scanEDGE; assay type: binding; conditions: 20 uM
T5 construct: purchased Eurofins DiscoverX (KINOMEscan; SAFETYscan E/IC50 ELECT)
T5 sequence (P50613 whole entry): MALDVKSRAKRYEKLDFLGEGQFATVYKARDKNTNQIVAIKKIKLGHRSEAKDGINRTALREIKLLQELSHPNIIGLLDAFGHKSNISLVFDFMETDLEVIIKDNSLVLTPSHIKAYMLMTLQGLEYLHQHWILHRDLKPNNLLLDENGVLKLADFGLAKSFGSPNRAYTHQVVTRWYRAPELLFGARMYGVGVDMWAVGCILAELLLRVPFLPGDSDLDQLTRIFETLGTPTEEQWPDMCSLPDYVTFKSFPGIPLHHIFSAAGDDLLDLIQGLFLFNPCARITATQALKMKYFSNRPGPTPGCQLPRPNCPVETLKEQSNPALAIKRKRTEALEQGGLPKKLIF

[9] = system: rat cardiac muscle fibers; experiment: Skinned fiber force, rat cardiac trabeculae; parameters: dose or concentration left out as unconfirmed; conditions: rat cardiac trabecular strips
Experimental: as §2

[10] = molecular target: T6, MEK2 (Homo sapiens, UniProt P36507); experiment: KINOMEscan scanEDGE; assay type: binding; conditions: 20 uM
T6 construct: purchased Eurofins DiscoverX (KINOMEscan; SAFETYscan E/IC50 ELECT)
T6 sequence (P36507 whole entry): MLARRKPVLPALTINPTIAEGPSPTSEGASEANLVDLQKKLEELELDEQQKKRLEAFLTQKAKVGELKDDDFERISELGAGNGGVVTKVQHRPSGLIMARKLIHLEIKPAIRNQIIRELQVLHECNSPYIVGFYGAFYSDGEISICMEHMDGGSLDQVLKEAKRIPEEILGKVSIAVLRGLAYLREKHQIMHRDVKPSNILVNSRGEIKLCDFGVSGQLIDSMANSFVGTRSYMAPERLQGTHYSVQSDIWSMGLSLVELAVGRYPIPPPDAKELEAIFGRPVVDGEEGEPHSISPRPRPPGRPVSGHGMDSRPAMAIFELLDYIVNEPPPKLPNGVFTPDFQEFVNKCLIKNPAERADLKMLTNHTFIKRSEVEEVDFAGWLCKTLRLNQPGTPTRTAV

[11] = system: Human Bicep myofibrils; experiment: Myofibril ATPase, human bicep; assay type: biochemical
Experimental: Myofibrils were prepared from various animals and tissues: rabbit psoas muscle and porcine cardiac muscle were purchased from Pel-Freez Biologicals. Human bicep and soleus muscle were purchased from BioIVT, and neonatal rat muscle was obtained in house. All myofibrils were prepared using published methods ([21]).
A lactate dehydrogenase/pyruvate kinase enzyme-coupled system ([62]) was used to monitor ATP hydrolysis rates in various muscle preparations. Rabbit psoas myofibrils were used for high-throughput screening at pCa 6.25 at 0.25 mg/mL. A multidrop cassette (Thermo Fisher Scientific) dispensed 10 μL of the coupled enzyme system, calcium, and myofibrils to 10 μL ATP, NADH and PEP to initiate the reaction prior to reading on a plate reader (Envision, Perkin Elmer) for 10 minutes per plate at room temperature. Hits were reconfirmed, and secondary assays were used to evaluate selectivity, including bovine cardiac myofibrils (pCa 5.86) and enzyme coupled hits with a hexokinase screen (Sigma-Aldrich).

[12] = molecular target: T7, PIK3CG (Homo sapiens, UniProt P48736); experiment: KINOMEscan scanEDGE; assay type: binding; conditions: 20 uM
T7 construct: purchased Eurofins DiscoverX (KINOMEscan; SAFETYscan E/IC50 ELECT)
T7 sequence (P48736 whole entry): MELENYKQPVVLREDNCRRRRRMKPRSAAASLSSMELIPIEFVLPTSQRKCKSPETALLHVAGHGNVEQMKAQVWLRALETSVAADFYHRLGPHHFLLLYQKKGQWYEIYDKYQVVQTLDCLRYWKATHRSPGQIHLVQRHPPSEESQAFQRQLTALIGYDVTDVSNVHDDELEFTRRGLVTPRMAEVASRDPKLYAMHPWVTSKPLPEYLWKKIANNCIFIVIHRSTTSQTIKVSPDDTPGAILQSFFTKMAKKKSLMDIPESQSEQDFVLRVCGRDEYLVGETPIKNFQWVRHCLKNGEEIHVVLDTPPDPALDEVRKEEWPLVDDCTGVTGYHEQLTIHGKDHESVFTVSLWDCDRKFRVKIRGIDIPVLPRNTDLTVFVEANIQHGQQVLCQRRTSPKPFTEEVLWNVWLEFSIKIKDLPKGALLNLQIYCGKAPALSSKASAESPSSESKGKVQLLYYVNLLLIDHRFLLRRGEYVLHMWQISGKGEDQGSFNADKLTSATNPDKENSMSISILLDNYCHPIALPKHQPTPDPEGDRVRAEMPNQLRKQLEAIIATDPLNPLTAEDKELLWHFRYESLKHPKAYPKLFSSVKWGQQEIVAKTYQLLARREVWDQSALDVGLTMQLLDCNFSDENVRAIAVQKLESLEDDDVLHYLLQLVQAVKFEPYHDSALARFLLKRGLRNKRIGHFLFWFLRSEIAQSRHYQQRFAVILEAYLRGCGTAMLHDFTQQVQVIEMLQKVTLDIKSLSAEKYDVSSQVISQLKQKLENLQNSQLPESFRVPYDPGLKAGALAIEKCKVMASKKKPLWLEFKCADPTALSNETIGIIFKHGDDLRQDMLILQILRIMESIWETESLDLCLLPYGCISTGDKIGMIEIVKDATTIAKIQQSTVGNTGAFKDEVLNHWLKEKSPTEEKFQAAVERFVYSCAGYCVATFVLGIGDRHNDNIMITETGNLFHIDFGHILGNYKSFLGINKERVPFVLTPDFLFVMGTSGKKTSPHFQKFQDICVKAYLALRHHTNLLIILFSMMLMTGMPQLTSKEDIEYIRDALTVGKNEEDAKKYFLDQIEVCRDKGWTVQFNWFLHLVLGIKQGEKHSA

[13] = system: mdx mice; experiment: Evans blue dye muscle uptake; assay type: in vivo, mouse; conditions: three-week treatment, nonexercised
Experimental: Prior to in vivo assessments, mice were dosed PO after a 2-hour fast with 10 mL/Kg suspensions. Grip strength and rotarod assessments were performed masked, 4 hours after dosing using published protocols ([66], [67]). Grip strength was performed with a Columbus Instruments Rodent Force Meter. Forepaw strength represented the average of 5 trials with 30-second rest periods, normalized by BW. Rotarod endurance was performed with a Columbus Instruments RotaMax. Mice were placed on the device drum at 1 rpm, which accelerated 1 rpm every 3 seconds to 12 rpm and a maximal time of 500 seconds. This was repeated 3 times with a 3-minute rest and total time reported. Voluntary wheel running performance was assessed with a customized system. Timestamped RPMs were measured 24 hours per day by infrared sensors, and a custom software calculated distance. Whole-body EBD was visualized after intravenous administration ([35]). EBD in PBS at 10 mg/mL was sterile filtered, and 50 μL/10 g BW was injected via tail vein. After 24 hours, animals were sacrificed, skin was removed and fixed in 4% formalin for 24 hours, and photographed using a Leica/Lumix camera.

T1 sequence (P31751 whole entry): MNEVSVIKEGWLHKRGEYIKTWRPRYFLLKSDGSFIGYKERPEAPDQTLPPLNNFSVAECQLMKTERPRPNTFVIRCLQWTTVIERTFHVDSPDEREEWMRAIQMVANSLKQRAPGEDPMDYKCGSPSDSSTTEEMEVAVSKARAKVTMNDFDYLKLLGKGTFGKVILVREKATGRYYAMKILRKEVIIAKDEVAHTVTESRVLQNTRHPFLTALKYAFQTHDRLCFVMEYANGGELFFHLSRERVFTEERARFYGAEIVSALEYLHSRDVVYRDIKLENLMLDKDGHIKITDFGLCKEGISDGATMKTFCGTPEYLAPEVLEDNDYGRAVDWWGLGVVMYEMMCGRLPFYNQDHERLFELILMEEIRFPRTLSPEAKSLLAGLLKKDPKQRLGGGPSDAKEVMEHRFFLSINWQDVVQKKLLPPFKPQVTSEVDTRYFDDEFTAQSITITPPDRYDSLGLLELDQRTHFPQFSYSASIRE

Structure (SMILES): O=c1ccc(-c2cnc(OCC(F)(F)F)nc2)nn1Cc1cncc(F)c1 [EDG-5506]
- binding, % of control [1]: 93 % of control
- muscle repair after cardiotoxin injury [2]: did not interfere with muscle repair
- Emax [3]: 0%
- Emax [4]: 4.79%
- Emax [5]: 6.08%
- fibrosis in TA and diaphragm muscles [6]: reduced fibrosis
- left ventricular fibrosis [6]: trend toward lower fibrosis
- IC50 [7]: 700 nM
- binding, % of control [8]: 83 % of control
- effect on force, cardiac muscle fibers [9]: no effect
- binding, % of control [10]: 72 % of control
- Maximum Inhibition (%) ([11]; human bicep myofibrils): 89%
- IC50 ([11]; human bicep, 50% Type I, 50% IIa, IIx): 1200 nM
- binding, % of control [12]: 100 % of control
- Evans blue dye-positive fibers [13]: reduced blue fibers close to the level seen in WT mice
